Structures can show the parent of a compound that is named as a salt.

Data set [1] concerns SKOV-3. In words: Cell viability (CellTiterGlo), SKOV-3. Conditions: Homo sapiens, SK-OV-3. In kind it is cell-based. The protocol: (§1) Candidate compounds are tested in 384-well plates for effects on cell viability in the presence or absence of an appropriate conventional anticancer drug. Cell viability is indirectly monitored in the first instance using CellTiterGlo (Promega Corp., Madison, WI) (Table D). To determine if cell death is apoptotic, the induction of caspase activity is assessed utilizing the CaspaseGlo Assay system (Promega Corp., Madison, WI) (Table E). Cell viability is monitored 1 to 3 days after addition of compounds and conventional drugs. […] A compound of any of the formulae as disclosed herein is evaluated in combination with said anticancer drug to determine which ML-IAP antagonist can sensitize most efficaciously. Select candidate compounds are tested in 14 point drug dose response (DDR) curves in a 384-well format in order to establish potency in combination with decreasing concentrations of lung cancer relevant drug regimens. Furthermore, checker-board titrations of a conventional drug and the candidate molecules are performed to search for synergy (using ISOBOLOGRAM analysis). Compounds and combinations as described herein are also tested for cytotoxicity against normal human cells (e.g. primary fibroblasts, lymphocytes, hepatocytes, epithelial and endothelial cells) using known methods.
(§2) Cell viability was evaluated following treatment with a compound as disclosed in Table D. Viability of cancer cells following treatment is indicated according to the following legend: […]

The test system of data set [2] is OVCAR-4. Kind of data set: Cell viability (CellTiterGlo), OVCAR-4. Conditions: Homo sapiens. In kind it is cell-based. As for the experimental part: as §1, §2
For data set [3], the target named is XIAP-BIR3 (Homo sapiens (Human), UniProt P98170). Kind of data set: Fluorescence polarization (FP) assay, inhibition of SMAC peptide binding. The protocol: Compounds of the present disclosure were evaluated for potency and selectivity in a fluorescence polarization (FP) assay that measures inhibition of SMAC peptide binding to ML-IAP. To measure SMAC peptide binding, multi-well plate format FP assays based on the ability of SMAC peptides to bind the BIR domains of several IAPs are used to generate IC50 and Ki values for analogues. The FP assays utilize plasmid constructs encoding various full length IAPs or fragments for expression as either GST or His6-fusion proteins in bacteria. Compounds are evaluated for activity against several members of the IAP family, including the BIR domains of XIAP, cIAP1 and cIAP2 in order to generate selectivity profiles of the compounds disclosed herein. These assays also enable the identification and characterization of potency profiles of ML-IAP binding.
Activity of the compounds are indicated according to the following legend: […]

In data set [4] the test system is SKOV-3 cancer cell lines. Kind of data set: SKOV-3 cell viability after treatment with 10 μM test compound. In kind it is cell-based. Conditions: for viability at 10 µM: Homo sapiens, SK-OV-3, 10 micromolar test compound, SKOV-3 cells; for % viability after treatment with 10 micromolar of test compound (SKOV-3 cells): 10 micromolar test compound, hydrochloride. The protocol:
SKOV-3 cancer cell lines were treated with a test compound, either as a pure enantiomer or a mixture of stereoisomers, at a concentration of 10 μM. Cell viability was evaluated following treatment with a compound as disclosed in Table B. Viability of cancer cells following treatment is indicated according to the following legend:
A=0-25% viability B=26-50% viability C=>50% viability

Data set [5] has as its system Caspase 3/7 (OVCAR-4). Kind of data set: Induction of caspase 3/7 activity (CaspaseGlo), OVCAR-4. It counts as cell-based. Conditions: Homo sapiens. The protocol:
as §1
(§3) The induction of caspase activities was tested with a compound as disclosed in Table E. The activities are indicated according to the following legend: […]

Data set [6] has as its system Caspase 3/7 (SKOV-3). Kind of data set: Induction of caspase 3/7 activity (CaspaseGlo), SKOV-3. It counts as cell-based. Conditions: Homo sapiens, SK-OV-3. The protocol:
as §1, §3

The test system of data set [7] is Caspase 9 (SKOV-3). Kind of data set: Induction of caspase 9 activity (CaspaseGlo), SKOV-3. Conditions: Homo sapiens, SK-OV-3. It counts as cell-based. The protocol: as §1, §3
Data set [8] is described as follows: In vivo PK plasma exposure in mice. The protocol:
Pharmacokinetic (PK) studies are performed in vivo in mice for compounds as described herein. Standard formulations are evaluated, including hydroxypropyl methylcellulose, carboxymethylcellulose, and polyethylene glycol. For intravenous studies, compounds are administered via indwelling catheters in jugular vein and samples collected from the carotid artery. These experiments provide basic pharmacokinetic parameters including peak plasma concentration (Cmax), bioavailability (% F), exposure (AUC), half-life (t½), clearance (CL), volume of distribution (Vd), and brain levels. To measure bioavailability, a compound as described herein is administered to three animals/group, both orally (10 mg/kg) and intravenously (1 mg/kg). Intraperitoneally administration is also assessed in order to determine both brain and plasma levels of compounds.
The compounds described herein were tested in vivo in mice to measure PK plasma exposure as shown in Table F. The PK plasma values are indicated according to the following legend: […]

XIAP-BIR3, sequence (P98170 241-356): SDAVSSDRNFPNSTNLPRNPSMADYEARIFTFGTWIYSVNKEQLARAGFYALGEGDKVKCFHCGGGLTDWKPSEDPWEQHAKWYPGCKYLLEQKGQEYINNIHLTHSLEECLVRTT

Turning to `CN[C@@H](C)C(=O)N[C@H]1CCOC2CC3(CCCC3)C(C(=O)N[C@@H]3CCCc4ccccc43)N2C1=O` (stereo partly drawn) [Compound 82, (4'S)-4′-((S)-2-(methylamino)propanamido)-5′-oxo-N—((R)-1,2,3,4-tetrahydronaphthalen-1-yl)hexahydro-7′H-spiro[cyclopentane-1,8′-pyrrolo[2,1-b][1,3]oxazepine]-7′-carboxamide hydrochloride], the IC50 in data set [1] and in data set [2] was 1 to 10 nM in each case. The compound also registered a Ki in data set [3] of 10 to 100 nM. The viability at 10 µM in data set [4] was 0 to 25%. The EC50 in data set [5], in data set [6] and in data set [7] was 1 to 10 nM in each case. The “PK plasma exposure at 1 h (IP, 10 mg/kg)” value in data set [8] was “iv (iv=>1000 nM)”.
Take `CN[C@@H](C)C(=O)N[C@H]1CCOC2CC3(CC=CC3)C(C(=O)N[C@@H]3CCCc4ccccc43)N2C1=O` (stereo partly drawn) [Compound 81, (4'S)-4′-((S)-2-(methylamino)propanamido)-5′-oxo-N—((R)-1,2,3,4-tetrahydronaphthalen-1-yl)-2′,3′,4′,5′,9′,9a′-hexahydro-7′H-spiro[cyclopentane-1,8′-pyrrolo[2,1-b][1,3]oxazepin]-3-ene-7′-carboxamide hydrochloride]: the IC50 was 1 to 10 nM in data set [1] and 10 to 100 nM in data set [2]. The inhibition constant Ki in data set [3] is 10 to 100 nM. In data set [4], this compound displayed a viability at 10 µM of 0 to 25%. For the same compound, the EC50 in data set [5], in data set [6] and in data set [7] was 1 to 10 nM in each case. In data set [8], the “PK plasma exposure at 1 h (IP, 10 mg/kg)” value is “iii (iii=500-1000 nM)”.
On to `CN[C@@H](C)C(=O)N[C@H]1CCS[C@H]2CC(C(C)C)(C(C)C)[C@@H](C(=O)N[C@@H]3CCCc4ccccc43)N2C1=O` [Compound 41, 4S,9aS)-8,8-diisopropyl-4-((S)-2-(methylamino)propanamido)-5-oxo-N—((R)-1,2,3,4-tetrahydronaphthalen-1-yl)octahydropyrrolo[2,1-b][1,3]thiazepine-7-carboxamide hydrochloride], for which the IC50 in data set [1] and in data set [2] was over 1000 nM each time. In data set [4], the “% viability after treatment with 10 micromolar of test compound (SKOV-3 cells)” value was “A (A=0-25% viability)”.
Regarding `CN[C@@H](C)C(=O)N[C@H]1Cc2ccc(OC)cc2[C@H]2CC(C)(C)[C@@H](C(=O)N[C@@H]3CCCc4ccccc43)N2C1=O` [Compound 11, (6S,11bR)-10-methoxy-2,2-dimethyl-6-((S)-2-(methylamino)propanamido)-5-oxo-N—((R)-1,2,3,4-tetrahydronaphthalen-1-yl)-2,3,5,6,7,11b-hexahydro-1H-benzo[c]pyrrolo[1,2-a]azepine-3-carboxamide hydrochloride], the IC50 in data set [1] and in data set [2] was over 1000 nM throughout. In data set [4], this compound came in with a viability at 10 µM of 26 to 50%.
As to `CN[C@@H](C)C(=O)N[C@H]1CCOC2CC(C)(C)[C@@H](C(=O)Nc3ccccc3-c3ncccn3)N2C1=O` (stereo partly drawn) [Compound 55, (4S,7S)-8,8-dimethyl-4-((S)-2-(methylamino)propanamido)-5-oxo-N-(2-(pyrimidin-2-yl)phenyl)octahydropyrrolo[2,1-b][1,3]oxazepine-7-carboxamide hydrochloride], the IC50 in data set [1] and in data set [2] was over 1000 nM throughout. Moreover, the viability at 10 µM in data set [4] is over 50%.
With `CN[C@@H](C)C(=O)N[C@H]1CC(CSc2ccccc2)O[C@H]2CC(C)(C)C(C(=O)N[C@@H]3CCCc4ccccc43)N2C1=O` (mixture of isomers) [Compound 75, rac-(4R)-8,8-dimethyl-4-((R)-2-(methylamino)propanamido)-5-oxo-2-((phenylthio)methyl)-N—((S)-1,2,3,4-tetrahydronaphthalen-1-yl)octahydropyrrolo[2,1-b][1,3]oxazepine-7-carboxamide hydrochloride], the IC50 in data set [1] and in data set [2] was 10 to 100 nM in each case. For the same compound, the viability at 10 µM in data set [4] fell in the range of 0 to 25%.
Consider `CN[C@@H](C)C(=O)N[C@@H]1C(=O)N2[C@H](CC(C)(C)[C@H]2C(=O)N[C@@H]2CCCc3ccccc32)OC2CCCCC21` (single isomer, unassigned) [Compound 65, hydrochloride], for which the IC50 in data set [1] and in data set [2] was 10 to 100 nM each time. In data set [3], this compound showed a Ki of 10 to 100 nM. Also, the viability at 10 µM in data set [4] lay within 0 to 25%. For the same compound, the EC50 in data set [5], in data set [6] and in data set [7] was 1 to 10 nM in each case. Moreover, in data set [8], the “PK plasma exposure at 1 h (IP, 10 mg/kg)” value is “iii (iii=500-1000 nM)”.
As to `CN[C@@H](C)C(=O)N[C@H]1CCS[C@H]2CC3(CCCC3)[C@@H](C(=O)N[C@@H]3CCCc4ccccc43)N2C1=O` [Compound 80, (4'S,7'S,9a'S)-4′-((S)-2-(methylamino)propanamido)-5′-oxo-N—((R)-1,2,3,4-tetrahydronaphthalen-1-yl)hexahydro-7′H-spiro[cyclopentane-1,8′-pyrrolo[2,1-b][1,3]thiazepine]-7′-carboxamide hydrochloride], the IC50 in data set [1] was under 1 nM; in data set [2] it was 1 to 10 nM. In addition, the inhibition constant (Ki) in data set [3] was in the range of 10 to 100 nM. Moreover, in data set [4], the viability at 10 µM is 0 to 25%. The EC50 in data set [5], in data set [6] and in data set [7] was under 1 nM in each case. Also, the “PK plasma exposure at 1 h (IP, 10 mg/kg)” value in data set [8] was “iii (iii=500-1000 nM)”.
Turning to `CCC1C[C@@H]2SCC[C@H](NC(=O)[C@H](C)NC)C(=O)N2[C@@H]1C(=O)N[C@@H]1CCCc2ccccc21` (stereo partly drawn) [Compound 36, hydrochloride], the half-maximal inhibitory concentration (IC50) in data set [1] lay within 10 to 100 nM; in data set [2], 100 to 1000 nM. The viability at 10 µM in data set [4] fell in the range of 26 to 50%.
On to `C=CCC1C[C@@H]2SCC[C@H](NC(=O)[C@H](C)NC)C(=O)N2[C@@H]1C(=O)N[C@@H]1CCCc2ccccc21` (stereo partly drawn) [Compound 32, (4S,9aS)-8,8-allyl-4-((S)-2-(methylamino)propanamido)-5-oxo-N—((R)-1,2,3,4-tetrahydronaphthalen-1-yl)octahydropyrrolo[2,1-b][1,3]thiazepine-7-carboxamide hydrochloride], for which the figures for the IC50 in data set [1] and in data set [2] were 10 to 100 nM and over 1000 nM, respectively. For the same compound, the “% viability after treatment with 10 micromolar of test compound (SKOV-3 cells)” value in data set [4] is “A (A=0-25% viability)”.
In the case of `CN[C@@H](C)C(=O)N[C@H]1CCS[C@H]2CC(CCc3ccccc3)(CCc3ccccc3)[C@@H](C(=O)N[C@@H]3CCCc4ccccc43)N2C1=O` [Compound 45, (4S,9aS)-4-((S)-2-(methylamino)propanamido)-5-oxo-8,8-diphenethyl-N—((R)-1,2,3,4-tetrahydronaphthalen-1-yl)octahydropyrrolo[2,1-b][1,3]thiazepine-7-carboxamide hydrochloride], the IC50 in data set [1] is 100 to 1000 nM; in data set [2], over 1000 nM. The same compound gave a viability at 10 µM in data set [4] of 0 to 25%.
Regarding `CC[C@H](NC)C(=O)N[C@H]1CCS[C@H]2CC(C)(C)[C@@H](C(=O)N[C@@H]3CCCc4ccccc43)N2C1=O.Cl` [Compound 79, (4S,7S,9aS)-8,8-dimethyl-4-((S)-2-(methylamino)butanamido)-5-oxo-N—((R)-1,2,3,4-tetrahydronaphthalen-1-yl)octahydropyrrolo[2,1-b][1,3]thiazepine-7-carboxamide hydrochloride], the 50% inhibitory concentration (IC50) was 1 to 10 nM in data set [1] and 10 to 100 nM in data set [2]. Moreover, the viability at 10 µM in data set [4] was 0 to 25%. Besides, the EC50 in data set [5], in data set [6] and in data set [7] was 1 to 10 nM each time. Further, the “PK plasma exposure at 1 h (IP, 10 mg/kg)” value in data set [8] is “iii (iii=500-1000 nM)”.

For the origin of these results see US20230295181A1, “INHIBITOR OF APOPTOSIS (IAP) PROTEIN ANTAGONISTS” (Sanford Burnham Prebys Medical Discovery Institute, priority 2020, published 2023).
